Measurements from patent publication US12503446B2, “Bromodomain inhibitors” (FORSCHUNGSZENTRUM JÜLICH GMBH, priority 2019, dated 2025).

Key:
BRD4 = assay: Thermal shift assay (BromoMELT assay), BRD4; type: binding; details: 10 μM, duplicates, versus DMSO control
Protocol: (§1) The experiment was conducted in duplicates at a concentration of 10 μM.

HEL cells [1] = assay: Viability from trypan blue staining, HEL; type: cell-based; details: 5 μM, compared to PFI-1
Protocol: (§2) Cell count and viability was determined after trypan blue staining. The appropriate concentrations of the inhibitors per ml of medium were added, or the correspondingly highest volume of DMSO was added as control group.
During the study of cell proliferation, the viability of the cell lines was likewise determined from the trypan blue staining. Trypan blue cannot penetrate into living cells.

[2] = test system: PARP1 cleavage in Molm-14 cells; assay: PARP1 cleavage Western blot (apoptosis), Molm-14; type: cell-based; details: 5 μM
Protocol: Cell lysates were produced with RIPA lysis buffer (50 mM Tris pH 7.4, 150 mM sodium chloride, 1 mM EDTA, 1% Triton-X, 15% glycerol, 0.5% sodium deoxycholate, and protease/phosphatase inhibitors). Protein concentrations were determined by the Bradford Protein Assay using a Nanodrop Spectrometer (NanoDrop 2000/2000c system, Thermo Fisher Scientific, Darmstadt, Germany) at 595 nm. To 25 μg of protein lysates was added 4xLämmli sample buffer, followed by denaturing at 65° C. for 5 min and introduction into the SDS-Page. The proteins were transferred by the wet blot method in Towbin buffer (3 g Tris, 14.4 g glycine, 5% methanol per litre of ddH2O) to a PVDF membrane at 100 mA overnight. The membrane was blocked with 10% BSA in TBS-T buffer (20 mM Tris-HCl, pH 7.6, 137 mM NaCl, 0.05% IGEPAL). The primary antibodies were incubated at 4° C. overnight, and the HRP-labelled antibodies at room temperature with the membrane for […]. The proteins were detected by means of PCA-ECL solution using a chemiluminescence detector (Fusion SL, PeqLab).
In addition, a possible induction of apoptosis in the cell lines described by compound MF2 was examined. […] The cleavage of the PARP1 protein is an indicator of incipient apoptosis (cell death) of the cells, and the cleavage products of PARP1 were accordingly examined by Western blot. In detail, after the inhibitor treatment, cell lysates were produced with RIPA lysis buffer. Protein concentrations were determined with the Bradford protein assay using a Nanodrop Spectrometer at 595 nm. To 25 μg of the protein lysates was added 4×Lämmli sample buffer, followed by denaturing at 65° C. for 5 min and introduction into the SDS-Page. The proteins were transferred by the wet blot method to a PVDF membrane at 100 mA overnight. The membrane was blocked with 10% BSA in TBS-T buffer. The primary antibodies were incubated at 4° C. overnight, and the HRP-labelled antibodies at room temperature with the membrane for 45 min. The proteins were detected by means of PCA-ECL solution using a chemiluminescence detector (Fusion SL, PeqLab). […]

HEL cells [3] = assay: Proliferation assay, cell count after trypan blue staining, HEL; type: cell-based; details: 1 or 5 μM, 24-72 h, by comparison with PFI-1
Protocol: as §2
The cell growth described here is referred to as proliferation, and gives information as to the cell divisions that proceeded in the specified period.

[4] = test system: mononuclear cells from AML patients; assay: CFU assay, AML patients; type: cell-based, human
Protocol: (§3) With the aid of the CFU assay, it is possible to determine the colony-forming capacity of individual cells in a semisolid methylcellulose medium (MethoCult H4434, StemCell Technologies, Cologne, Germany). The number of colonies was determined after 7-11 days.
Mononuclear cells from the bone marrow from AML patients: 7×10^5 cells/ml
Vital sterile mononuclear bone marrow cells from AML patients were cultured for 24 h in 1.5 ml of BIT Medium in 8.5 ml of IMDM medium (to which had been added 5 μl of FLT3 ligand, 10 μl of rh SCF, 2 μl of rh IL-3, 2 μl of rh G-CSF, 50 μl of ciprofloxacin and 6.99 μl of β-mercaptoethanol in 1:100 dilution), before they were used in the CFU assay.
Individual cells in the CFU assay form cell colonies in culture after 12 days, unless the formation thereof is prevented by inhibitors.

[5] = test system: PBMC or CD34+ cells from healthy donors; assay: CFU assay, healthy controls; type: cell-based, human
Protocol: as §3
CD34+ cells (G-CSF mobilized from stem cell donors) from healthy donors: 2×10^4 cells/ml; PBMCs from the healthy subjects: 4×10^5 cells/ml.
For this purpose, mononuclear cells (PBMC: mononuclear cells from peripheral blood) or CD34-positive stem cells (CD34+ cells) were isolated from the blood of four healthy controls and three AML or MPN patients and introduced into semisolid medium, to each of which 1 μM or 5 μM of MFS-2 or PFI-1 have been added. Individual cells in the CFU assay form cell colonies in culture after 12 days, unless the formation thereof is prevented by inhibitors.

[6] = test system: proteins from the BET family; assay: Thermal shift assay (BromoMELT assay), BET family; type: binding; details: 10 μM, duplicates, versus DMSO control; apart from BRDT-2
Protocol: as §1

[7] = test system: haematopoietic cell lines, erythroleukaemia and AML cell lines; assay: Inhibitory activity in haematopoietic cell lines (summary statements); type: cell-based
Protocol: All studies with the HEL, Molm-14 and K562 cell lines mentioned (sourced from DSMZ: ACC-11, ACC-10 and ACC-777) were conducted under germ-free conditions under a sterile hood. Incubation was effected at 37° C. in an incubator at a CO2 saturation of 5%. For the passage of the suspension cells, the cells were transferred in a Falcon prefilled with PBS (phosphate buffered saline) and centrifuged at 1200 rpm for 5 min. All three cell lines were cultured in RPMI-1640 medium (Gibco, Thermo Fischer Scientific, Darmstadt, Germany) with 10% FCS and 1% penicillin streptomycin.
The viability and metabolic activity of the cells were measured by the MTT assay. Yellow, water-soluble MTT (3-([…])-2,5-diphenyltetrazolium bromide) is a tetrazolium salt which is reduced to dark blue formazan in living cells. Insoluble formazan is released by addition of isopropanol-HCl, and its intensity can be determined by photometry at a wavelength of 550 nm. Thus, the proportion of living cells is measured by comparison with a particular control sample. The cells were counted and washed with PBS, and 30 000 cells per well were sown in triplicates in a 96-well plate. For the inhibitor treatment, the stated final concentrations were used. For this purpose, 10 µl of the appropriate inhibitor dilution was introduced into the 96-well plates, and then 90 μl of cell suspension was pipetted in. The plates were incubated in an incubator for 72 h (37° C., 5% CO2). After the incubation, 10 μl of MTT solution (5 mg/ml) was applied to the wells with a multichannel pipette and thoroughly resuspended. This was followed by incubation for 4 h in the dark at room temperature. Subsequently, the cells were resuspended in 100 μl of isopropanol-HCl and lysed, and absorption at a wavelength of 550 nm was measured by photometry with a plate reader (Kayto, RT-2100C).

CN1Cc2cc(N=[S@@](C)(=O)c3ccccc3)ccc2NC1=O [MF2-S, (S)—N-(3-methyl-2-oxo-1,2,3,4-tetrahydroquinazolin-6-yl)-S-methyl-S-phenylsulfoximine]
binding / specificity for BRD4 (ΔTm, in words) (BRD4): more specific binding of BRD4
viability of HEL cells (HEL cells [1]): significantly reduced the viability
uncleaved PARP1, Molm-14 ([2]; 48 h): less uncleaved PARP1 was apparent
band for the PARP1 cleavage product, Molm-14 ([2]; 48 h, compared to PFI-1): same intensity
induction of apoptosis, Molm-14 ([2]; compared to MF2, MF2-R, PFI-1): induced apoptosis more strongly than the other compounds examined
cell proliferation (cell count) of HEL (HEL cells [3]): significantly reduced the cell proliferation
colony count, AML patients, 1 μM versus 5 μM PFI-1 ([4]; 1 μM): just as efficient as 5 μM PFI-1
colony count, AML patients ([4]; 1 μM and 5 μM, compared to PFI-1 at same concentration): reduced the colony count to a significantly greater degree than PFI-1
colony count, healthy CD34+ controls 3 and 4 ([5]; 1 μM): reduced the colony count of the controls to a lesser degree
colony count, healthy control 4 ([5]; 1 μM): not significantly reduced
colony count, healthy controls 1 (PBMC) and 2 (CD34+ cells) ([5]; 5 μM): likewise reduced the amount of colonies
binding of BET family proteins (ΔTm, in words) [6]: equally good or better binding of proteins from the BET family compared to the comparative compound PFI-1
inhibitory activity in haematopoietic / leukaemia cell lines (in words) [7]: excellent inhibition of the cell proliferation
